Source: patent publication US20160194358A1, “LINEAR PEPTIDE ANTIBIOTCS” (priority 2013, published 2016)
Values after ≈ are worked out from the molar mass of the structure shown. Where two headings read alike, the source gives them in different places. *1 amine or outer side, *2 acyl side, *3 side chain or, on linkers, in order; H or OH if unused. Where a SMILES comes first, the peptide text is derived from it. [ ]: non-standard residue; d: D form. The star is where a group is joined. ξ: configuration not given here. Benzoyl(4-(4-Cl-Ph)) = O=C(c1ccc(-c2ccc(Cl)cc2)cc1)*; ξ3Amino2oxobutanoyl = CC(N[*:1])C(=O)C(=O)[*:2]; NH(2-(2-pyridyl)ethyl) = c1ccc(CCN*)nc1; X1 = C[C@H](N[*:1])C(=O)C(=O)[*:2]; Thr(3ξ) = CC(O)[C@H](N)C(=O)O; Decanoyl = CCCCCCCCCC(=O)*; Dap = NC[C@H](N)C(=O)O; NHtBu = CC(C)(C)N*; βAla = NCCC(=O)O; NHcPr = C1CC1N*; NHiPr = CC(C)N*; NHBu = CCCCN*; X13 = COCCCN*

Key:
E. coli SPase = target: T1, E. coli SPase (Escherichia coli, UniProt P00803); experiment: Biochemical SPase activity assay, fluorogenic peptide substrate, E. coli enzyme; settings: 20 μM substrate, 10 minutes preincubation, read-out: IC 50 (nM) E. coli
T1 construct: Full length His-tagged E. coli SPase proteins; His; made in house; host or cells: E. coli BL21(DE3)
Method: Full length His-tagged E. coli SPase proteins were expressed in E. coli BL21(DE3) containing the plasmid pET23-lepB. Briefly, saturated overnight cultures grown in 20 ml of Luria-Bertani medium supplemented with ampicillin were subcultures into 1.5 L of Luria-Bertani, and shaken at 37° C. until an optical density at 600 nm of 0.4-0.5 was achieved.
(§1) Signal peptidase enzyme activity of the above proteins was measured using two fluorogenic peptide substrates (decanoyl-LSSPAYNO2A ? ADKabzPD and decanoyl-LTPTAYNO2A ? ASKKabzDD), where abz is the fluorescence donor 2-aminobenzamide, YNO2 is the fluorescence acceptor 3-nitrotyrosine, and the cleavage site is indicated with an arrow. Enzyme mix solution was prepared by diluting 2.5 nM of Escherichia coli or Staphylococcus aureus SPase protein into reaction buffers consisting of 20 mM PO4 pH 7.4, 100 mM NaCl, and 1% Elugent™ or octyl phenoxypolyethoxylethanol detergent at a concentration of 0.25% or 0.0625%. Reactions were initiated by the addition of substrate to a final concentration of 20 μM. Reaction progress was monitored by measuring the increase in fluorescence signal (excitation at 314 nm, emission at 416 nm) using a SpectraMax M2 fluorescence microplate reader. To determine IC50 values of test compounds, compound stock solutions were prepared in DMSO at a concentration of 1 mM. Three-folder serial dilutions of test compounds, starting at 10 μM, were prepared in enzyme mix solution and incubated at room temperature for 10 minutes. Following this incubation, fluorogenic substrate was added to a final concentration of 20 μM and the increase in fluorescence, corresponding to substrate cleavage, was monitored continuously at room temperature for 1 hour. Initial reaction rates were calculated based on the rate of increase in fluorescence during the reaction. Reaction rates were plotted as a function of compound concentration, and IC50 values are determined nonlinear regression analysis (SoftMaxPro 5.4, Molecular Devices™) of the sigmoidal dose-response curve.

S. aureus SPase = S. aureus SPase (Staphylococcus aureus, UniProt P0A070); experiment: biochemical; settings: IC 50 (nM) S. aureus, 20 μM substrate, 10 minutes preincubation
Method: Full length His-tagged S. aureus SPase protein was expressed similarly from E. coli BL21(DE3) containing the plasmid pCDF1-SaSpsB and purified similarly to the E. coli protein with the following exceptions. SPase protein was solubilized using 300 mM NaCl, 20 mM Tris pH 8.06, 5 mM Imidazole, 10% glycerol, 1% Triton X-100, prior to purification in Ni-NTA Superflow resin and resin bound protein was washed in a similar buffer containing 1% Elugent in place of Triton X-100 prior to protein eluted in wash buffer supplemented with 300 mM imidazole. […] All protein concentrations were determined by BCA assay.
as §1

[1] = test system: Escherichia coli strain MC4100 IMP-4213, which harbors an LptD mutation; settings: E. coli MC4100 IMP-4213, 35° C., 22 hours
Procedure, shortened: (§2)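 CLSI broth microdilution in cation-adjusted Mueller Hinton Broth with 0.002% Tween-80, two-fold dilutions starting at 64 μg/ml.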

[2] = test system: methicillin resistant Staphylococcus aureus (MRSA) strain USA300 (NRS384); settings: MRSA USA300 (NRS384), 35° C., 22 hours
Procedure, shortened: as §2

T1 sequence (P00803 whole entry): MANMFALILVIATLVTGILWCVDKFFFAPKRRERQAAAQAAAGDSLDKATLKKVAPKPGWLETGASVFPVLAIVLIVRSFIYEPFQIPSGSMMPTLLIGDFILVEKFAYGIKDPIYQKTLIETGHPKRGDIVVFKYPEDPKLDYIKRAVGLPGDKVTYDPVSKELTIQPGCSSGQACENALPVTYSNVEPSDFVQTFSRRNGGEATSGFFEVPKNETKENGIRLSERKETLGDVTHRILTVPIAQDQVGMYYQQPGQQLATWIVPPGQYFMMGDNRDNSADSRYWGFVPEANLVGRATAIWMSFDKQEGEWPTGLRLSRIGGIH
Sequence of S. aureus SPase (P0A070 whole entry): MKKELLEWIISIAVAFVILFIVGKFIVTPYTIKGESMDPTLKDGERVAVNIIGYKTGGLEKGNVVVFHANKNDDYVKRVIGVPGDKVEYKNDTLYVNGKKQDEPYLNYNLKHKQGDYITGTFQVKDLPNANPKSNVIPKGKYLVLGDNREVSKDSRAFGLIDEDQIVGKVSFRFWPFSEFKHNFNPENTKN

| Structure (SMILES) | IC50 (E. coli SPase) [nM] | IC50 (S. aureus SPase) [nM] | MIC (μg/mL) E. coli [1] [µg/mL] | MIC (μg/mL) S. aureus [2] [µg/mL] | also measured |
| --- | --- | --- | --- | --- | --- |
| CCCCc1ccc(-c2ccc(C(=O)N[C@@H](CCN)C(=O)N[C@H](C(=O)N[C@@H](C)C(=O)N[C@@H](CCCCN)C(=O)N[C@@H](C)C(=O)C3CO3)[C@@H](C)O)cc2)cc1 (single isomer, unassigned) [Compound 201 P1] | 7 | 10 | – | – | MIC (μg/mL) E. coli ([1]; listed as 201 P1): 1 µg/mL (≈ 1.33 µM); MIC (μg/mL) S. aureus ([2]; listed as 201 P1): 0.09 µg/mL (≈ 0.12 µM) |
| CCCCc1ccc(-c2ccc(C(=O)N[C@@H](CCN)C(=O)N[C@H](C(=O)N[C@@H](C)C(=O)N[C@@H](CCCCN)C(=O)N[C@@H](C)C(=O)C3CO3)[C@@H](C)O)cc2)cc1 (single isomer, unassigned) [Compound 201 P2] | 150 | 210 | – | – | MIC (μg/mL) E. coli ([1]; listed as 201 P2): 5.7 µg/mL (≈ 7.58 µM); MIC (μg/mL) S. aureus ([2]; listed as 201 P2): 2 µg/mL (≈ 2.66 µM) |
| CCCCc1ccc(-c2ccc(C(=O)N[C@@H](CCN)C(=O)N[C@H](C(=O)N[C@@H](C)C(=O)N[C@@H](CCCCN)C(=O)N[C@@H](C)C(=O)C3OC3C)[C@@H](C)O)cc2)cc1 (single isomer, unassigned) [Compound 203 P1] | 440 | 95 | – | – | MIC (μg/mL) E. coli ([1]; listed as 203 P1): 11 µg/mL (≈ 14.4 µM); MIC (μg/mL) S. aureus ([2]; listed as 203 P1): 1.2 µg/mL (≈ 1.57 µM) |
| CCCCc1ccc(-c2ccc(C(=O)N[C@@H](CCN)C(=O)N[C@H](C(=O)N[C@@H](C)C(=O)N[C@@H](CCCCN)C(=O)N[C@@H](C)C(=O)C3OC3C)[C@@H](C)O)cc2)cc1 (single isomer, unassigned) [Compound 203 P2] | 1500 | 1000 | – | – | MIC (μg/mL) E. coli ([1]; listed as 203 P2): 23 µg/mL (≈ 30 µM); MIC (μg/mL) S. aureus ([2]; listed as 203 P2): 8 µg/mL (≈ 10.4 µM) |
| CCCCc1ccc(-c2ccc(C(=O)N[C@@H](CCN)C(=O)N[C@H](C(=O)N[C@@H](C)C(=O)N[C@@H](CCCCN)C(=O)N[C@@H](C)C(=O)C3OC3C)[C@@H](C)O)cc2)cc1 (single isomer, unassigned) [Compound 205 P1] | > 10000 | > 10000 | – | – | MIC (μg/mL) E. coli ([1]; listed as 205 P1): 32 µg/mL (≈ 41.8 µM); MIC (μg/mL) S. aureus ([2]; listed as 205 P1): >64 µg/mL |
| CCCCc1ccc(-c2ccc(C(=O)N[C@@H](CCN)C(=O)N[C@H](C(=O)N[C@@H](C)C(=O)N[C@@H](CCCCN)C(=O)N[C@@H](C)C(=O)C3OC3C)[C@@H](C)O)cc2)cc1 (single isomer, unassigned) [Compound 205 P2] | > 10000 | > 10000 | – | – | MIC (μg/mL) E. coli ([1]; listed as 205 P2): 32 µg/mL (≈ 41.8 µM); MIC (μg/mL) S. aureus ([2]; listed as 205 P2): >64 µg/mL |
| CCCCc1ccc(-c2ccc(C(=O)N[C@@H](CCN)C(=O)N[C@H](C(=O)N[C@@H](C)C(=O)N[C@@H](CCCCN)C(=O)N[C@@H](C)C(=O)C3(C)CO3)[C@@H](C)O)cc2)cc1 (single isomer, unassigned) [Compound 207 P1] | 1800 | 1400 | – | – | MIC (μg/mL) E. coli ([1]; listed as 207 P1): 8 µg/mL (≈ 10.4 µM); MIC (μg/mL) S. aureus ([2]; listed as 207 P1): 5.7 µg/mL (≈ 7.44 µM) |
| CCCCc1ccc(-c2ccc(C(=O)N[C@@H](CCN)C(=O)N[C@H](C(=O)N[C@@H](C)C(=O)N[C@@H](CCCCN)C(=O)N[C@@H](C)C(=O)C3(C)CO3)[C@@H](C)O)cc2)cc1 (single isomer, unassigned) [Compound 207 P2] | 9900 | 1300 | – | – | MIC (μg/mL) E. coli ([1]; listed as 207 P2): 32 µg/mL (≈ 41.8 µM); MIC (μg/mL) S. aureus ([2]; listed as 207 P2): 32 µg/mL (≈ 41.8 µM) |
| COCCCNC(=O)C(=O)[C@H](C)NC(=O)[C@H](CCCCN)NC(=O)[C@H](C)NC(=O)[C@@H](NC(=O)[C@H](CN)NC(=O)c1ccc(-c2ccc(Cl)cc2)cc1)[C@@H](C)O [Compound 101] ({Benzoyl(4-(4-Cl-Ph))}-[Dap]TAK[X1]-X13) | 870 | 1600 | >64 | >64 | – |
| CCNC(=O)C(=O)[C@H](C)NC(=O)[C@H](CCCCN)NC(=O)[C@H](C)NC(=O)[C@@H](NC(=O)[C@H](CN)NC(=O)c1ccc(-c2ccc(Cl)cc2)cc1)[C@@H](C)O [Compound 102] ({Benzoyl(4-(4-Cl-Ph))}-[Dap]TAK[X1]-NHEt) | 440 | 580 | >64 | 32 (≈ 42.9 µM) | – |
| CC(C)NC(=O)C(=O)[C@H](C)NC(=O)[C@H](CCCCN)NC(=O)[C@H](C)NC(=O)[C@@H](NC(=O)[C@H](CN)NC(=O)c1ccc(-c2ccc(Cl)cc2)cc1)[C@@H](C)O [Compound 103] ({Benzoyl(4-(4-Cl-Ph))}-[Dap]TAK[X1]-NHiPr) | 1100 | 1400 | >64 | >64 | – |
| C[C@H](NC(=O)[C@@H](NC(=O)[C@H](CN)NC(=O)c1ccc(-c2ccc(Cl)cc2)cc1)[C@@H](C)O)C(=O)N[C@@H](CCCCN)C(=O)N[C@@H](C)C(=O)C(=O)NCCc1ccccn1 [Compound 104] ({Benzoyl(4-(4-Cl-Ph))}-[Dap]TAK[X1]-{NH(2-(2-pyridyl)ethyl)}) | 950 | 840 | >64 | 64 (≈ 77.8 µM) | – |
| CCCCNC(=O)C(=O)[C@H](C)NC(=O)[C@H](CCCCN)NC(=O)[C@H](C)NC(=O)[C@@H](NC(=O)[C@H](CN)NC(=O)c1ccc(-c2ccc(Cl)cc2)cc1)[C@@H](C)O [Compound 105] ({Benzoyl(4-(4-Cl-Ph))}-[Dap]TAK[X1]-NHBu) | 900 | 1300 | 64 (≈ 82.8 µM) | 51 (≈ 65.9 µM) | – |
| CCCCCCCCCC(=O)NCCC(=O)N[C@@H](CCCCN)C(=O)N[C@H](C(=O)N[C@@H](C)C(=O)N[C@@H](CC(N)=O)C(=O)NC(C)C(=O)C(=O)NC)C(C)O (some centres unmarked) [Compound 106] ({Decanoyl-βAla}-K[Thr(3ξ)]AN[ξ3Amino2oxobutanoyl]-NHMe) | 6200 | 45 | >64 | >64 | – |
| CCCCCCCCCC(=O)N[C@@H](CCCCN)C(=O)N[C@H](C(=O)N[C@@H](C)C(=O)N[C@@H](CC(N)=O)C(=O)NC(C)C(=O)C(=O)NC)C(C)O (some centres unmarked) [Compound 107] (Decanoyl-K[Thr(3ξ)]AN[ξ3Amino2oxobutanoyl]-NHMe) | 3200 | 360 | >64 | >64 | – |
| C[C@H](NC(=O)[C@@H](NC(=O)[C@H](CN)NC(=O)c1ccc(-c2ccc(Cl)cc2)cc1)[C@@H](C)O)C(=O)N[C@@H](CCCCN)C(=O)N[C@@H](C)C(=O)C(=O)NC(C)(C)C [Compound 108] ({Benzoyl(4-(4-Cl-Ph))}-[Dap]TAK[X1]-NHtBu) | 930 | 3700 | >64 | >64 | – |
| C[C@H](NC(=O)[C@@H](NC(=O)[C@H](CN)NC(=O)c1ccc(-c2ccc(Cl)cc2)cc1)[C@@H](C)O)C(=O)N[C@@H](CCCCN)C(=O)N[C@@H](C)C(=O)C(=O)NC1CC1 [Compound 109] ({Benzoyl(4-(4-Cl-Ph))}-[Dap]TAK[X1]-NHcPr) | 820 | 2000 | 32 (≈ 42.3 µM) | 32 (≈ 42.3 µM) | – |
